Measurements from patent US10501445B2, “Quinoxalinones and dihydroquinoxalinones as respiratory syncytial virus antiviral agents” (JANSSEN SCIENCES IRELAND UC, priority 2013, dated 2019).
pEC50: −log10 of the molar value.

Tests used:
rgRSV224 virus = test: Antiviral activity: rgRSV224 (GFP-expressing RSV) replication in HeLa cells, GFP expression readout; type: cell-based; conditions: human respiratory syncytial virus, 72 h, read-out: WT activity EC50
Experimental: (§1) Black 96-well clear-bottom microtiter plates (Corning, Amsterdam, The Netherlands) were filled in duplicate using a customized robot system with serial 4-fold dilutions of compound in a final volume of 50 μl culture medium [RPMI medium without phenol red, 10% FBS, 0.04% gentamycin (50 mg/ml) and 0.5% DMSO]. Then, 100 μl of a HeLa cell suspension (5×10^4 cells/ml) in culture medium was added to each well followed by the addition of 50 μl rgRSV224 (MOI=0.02) virus in culture medium using a multidrop dispenser (Thermo Scientific, Erembodegem, Belgium). rgRSV224 virus is an engineered virus that includes an additional GFP gene (Hallak et al, 2000) and was in-licensed from the NIH (Bethesda, Md., USA). Medium, virus- and mock-infected controls were included in each test. Cells were incubated at 37° C. in a 5% CO2 atmosphere. Three days post-virus exposure, viral replication was quantified by measuring GFP expression in the cells by a MSM laser microscope (Tibotec, Beerse, Belgium). The EC50 was defined as the 50% inhibitory concentration for GFP expression. In parallel, compounds were incubated for three days in a set of white 96-well microtitier plates (Corning) and the cytotoxicity of compounds in HeLa cells was determined by measuring the ATP content of the cells using the ATPlite kit (PerkinElmer, Zaventem, Belgium) according to the manufacturer's instructions. The CC50 was defined as the 50% concentration for cytotoxicity.

in vitro = type: cell-based; conditions: human
Experimental: as §1

O=c1cnc2ccc(Br)cc2n1Cc1nc2cc(F)ccc2n1CCCCF [Compound P1, 7-bromo-1-{[5-fluoro-1-(4-fluorobutyl)-1H-benzimidazol-2-yl]methyl}quinoxalin-2(1H)-one]
pEC50 (rgRSV224 virus): 7.15 | CC50 at 3 days (in vitro): 87 µM

O=c1cnc2ccc(-c3ccc(CCN4CCOCC4)cc3)cc2n1Cc1nc2cc(F)ccc2n1CCCCF [Compound P2, 1-((5-fluoro-1-(4-fluorobutyl)-1H-benzo[d]imidazol-2-yl)methyl)-7-(4-(2-morpholinoethyl)phenyl)quinoxalin-2(1H)-one]
pEC50 (rgRSV224 virus): < 5.00 | CC50 at 3 days (in vitro): 94 µM

O=c1cnc2ccc(-c3ccc(C(F)(F)F)cc3)cc2n1Cc1nc2cc(F)ccc2n1CCCCF [Compound P3, 1-((5-fluoro-1-(4-fluorobutyl)-1H-benzo[d]imidazol-2-yl)methyl)-7-(4-(trifluoromethyl)phenyl)quinoxalin-2(1H)-one]
pEC50 (rgRSV224 virus): < 5.00 | CC50 at 3 days (in vitro): 42.4 µM

Cc1nc(C)c(-c2ccc3ncc(=O)n(Cc4nc5cc(F)ccc5n4CCCCF)c3c2)s1 [Compound P4, 7-(2,4-dimethylthiazol-5-yl)-1-((5-fluoro-1-(4-fluorobutyl)-1H-benzo[d]imidazol-2-yl)methyl)quinoxalin-2(1H)-one]
pEC50 (rgRSV224 virus): 5.32 | CC50 at 3 days (in vitro): 31.1 µM

Cn1nc(C(F)(F)F)cc1-c1ccc2ncc(=O)n(Cc3nc4cc(F)ccc4n3CCCCF)c2c1 [Compound P5, 1-((5-fluoro-1-(4-fluorobutyl)-1H-benzo[d]imidazol-2-yl)methyl)-7-(1-methyl-3-(trifluoromethyl)-1H-pyrazol-5-yl)quinoxalin-2(1H)-one]
pEC50 (rgRSV224 virus): 5.31 | CC50 at 3 days (in vitro): 53.3 µM

O=c1cnc2ccc(-c3ccccc3)cc2n1Cc1nc2cc(F)ccc2n1CCCCF [Compound P6, 1-((5-fluoro-1-(4-fluorobutyl)-1H-benzo[d]imidazol-2-yl)methyl)-7-phenylquinoxalin-2(1H)-one]
pEC50 (rgRSV224 virus): 5.40 | CC50 at 3 days (in vitro): 42.8 µM

CN(C)Cc1cccc(-c2ccc3ncc(=O)n(Cc4nc5cc(F)ccc5n4CCCCF)c3c2)c1 [Compound P7, 7-(3-((dimethylamino)methyl)phenyl)-1-((5-fluoro-1-(4-fluorobutyl)-1H-benzo[d]imidazol-2-yl)methyl)quinoxalin-2(1H)-one]
pEC50 (rgRSV224 virus): 7.00 | CC50 at 3 days (in vitro): 17.6 µM

O=c1cnc2ccc(-c3ccncc3)cc2n1Cc1nc2cc(F)ccc2n1CCCCF [Compound P8, 1-((5-fluoro-1-(4-fluorobutyl)-1H-benzo[d]imidazol-2-yl)methyl)-7-(pyridin-4-yl)quinoxalin-2(1H)-one]
pEC50 (rgRSV224 virus): 5.57 | CC50 at 3 days (in vitro): 86.8 µM

O=c1cnc2ccc(F)cc2n1Cc1nc2cc(F)ccc2n1CCCCF [Compound P9, 7-fluoro-1-((5-fluoro-1-(4-fluorobutyl)-1H-benzo[d]imidazol-2-yl)methyl)quinoxalin-2(1H)-one]
pEC50 (rgRSV224 virus): 6.57 | CC50 at 3 days (in vitro): > 100 µM

O=c1cnc2cc(F)ccc2n1Cc1nc2cc(F)ccc2n1CCCCF [Compound P10, 6-fluoro-1-((5-fluoro-1-(4-fluorobutyl)-1H-benzo[d]imidazol-2-yl)methyl)quinoxalin-2(1H)-one]
pEC50 (rgRSV224 virus): 5.98 | CC50 at 3 days (in vitro): > 100 µM

O=c1cnc2cnccc2n1Cc1nc2cc(F)ccc2n1CCCCF [Compound P11, 1-((5-fluoro-1-(4-fluorobutyl)-1H-benzo[d]imidazol-2-yl)methyl)pyrido[3,4-b]pyrazin-2(1H)-one]
pEC50 (rgRSV224 virus): 5.14 | CC50 at 3 days (in vitro): > 100 µM

O=C1CN(C2CC2)c2ccncc2N1Cc1nc2cc(F)ccc2n1CCCCF [Compound P12, 1-cyclopropyl-4-((5-fluoro-1-(4-fluorobutyl)-1H-benzo[d]imidazol-2-yl)methyl)-1,2-dihydropyrido[3,4-b]pyrazin-3(4H)-one]
pEC50 (rgRSV224 virus): 7.96 | CC50 at 3 days (in vitro): 50.1 µM

CC(C)CCn1c(Cn2c(=O)cnc3ccc(Br)cc32)nc2nc(Cl)ccc21 [Compound P13, 7-bromo-1-((5-chloro-1-isopentyl-1H-imidazo[4,5-b]pyridin-2-yl)methyl) quinoxalin-2(1H)-one]
pEC50 (rgRSV224 virus): 8.40 | CC50 at 3 days (in vitro): 46.5 µM

CC(C)CCn1c(Cn2c(=O)cnc3ccc(-c4ccncc4)cc32)nc2nc(Cl)ccc21 [Compound P14, 1-((5-chloro-1-isopentyl-1H-imidazo[4,5-b]pyridin-2-yl)methyl)-7-(pyridin-4-yl)quinoxalin-2(1H)-one]
pEC50 (rgRSV224 virus): 7.21 | CC50 at 3 days (in vitro): 14.7 µM

CC(C)CCn1c(Cn2c(=O)cnc3ccc(-c4ccsc4)cc32)nc2nc(Cl)ccc21 [Compound P15, 1-((5-chloro-1-isopentyl-1H-imidazo[4,5-b]pyridin-2-yl)methyl)-7-(thiophen-3-yl)-quinoxalin-2(1H)-one]
pEC50 (rgRSV224 virus): 6.47 | CC50 at 3 days (in vitro): 27.6 µM

CC(C)CCn1c(Cn2c(=O)cnc3ccc(-c4cccn4C(=O)OC(C)(C)C)cc32)nc2nc(Cl)ccc21 [Compound P16, tert-butyl 2-(4-((5-chloro-1-isopentyl-1H-imidazo[4,5-b]pyridin-2-yl)methyl)-3-oxo-3,4-dihydroquinoxalin-6-yl)-1H-pyrrole-1-carboxylate]
pEC50 (rgRSV224 virus): 6.29 | CC50 at 3 days (in vitro): 42.5 µM

CC(C)CCn1c(Cn2c(=O)cnc3ccc(-c4cncnc4)cc32)nc2nc(Cl)ccc21 [Compound P17, 1-((5-chloro-1-isopentyl-1H-imidazo[4,5-b]pyridin-2-yl)methyl)-7-(pyrimidin-5-yl)quinoxalin-2(1H)-one]
pEC50 (rgRSV224 virus): 6.32 | CC50 at 3 days (in vitro): > 100 µM

CC(C)CCn1c(Cn2c(=O)cnc3ccc(-c4ccc(F)cc4)cc32)nc2nc(Cl)ccc21 [Compound P18, 1-((5-chloro-1-isopentyl-1H-imidazo[4,5-b]pyridin-2-yl)methyl)-7-(4-fluorophenyl)quinoxalin-2(1H)-one]
pEC50 (rgRSV224 virus): 5.48 | CC50 at 3 days (in vitro): 51.5 µM

CC(C)CCn1c(Cn2c(=O)cnc3ccc(F)cc32)nc2nc(Cl)ccc21 [Compound P19, 1-((5-chloro-1-isopentyl-1H-imidazo[4,5-b]pyridin-2-yl)methyl)-7-fluoroquinoxalin-2(1H)-one]
pEC50 (rgRSV224 virus): 7.38 | CC50 at 3 days (in vitro): > 100 µM

CC(C)CCn1c(Cn2c(=O)cnc3cc(F)ccc32)nc2nc(Cl)ccc21 [Compound P20, 1-((5-chloro-1-isopentyl-1H-imidazo[4,5-b]pyridin-2-yl)methyl)-6-fluoroquinoxalin-2(1H)-one]
pEC50 (rgRSV224 virus): 7.49 | CC50 at 3 days (in vitro): > 100 µM

CC(C)CCn1c(Cn2c(=O)cnc3cnccc32)nc2nc(Cl)ccc21 [Compound P21, 1-((5-chloro-1-isopentyl-1H-imidazo[4,5-b]pyridin-2-yl)methyl)pyrido[4,3-b]pyrazin-2(1H)-one]
pEC50 (rgRSV224 virus): < 5.00 | CC50 at 3 days (in vitro): > 100 µM

CC(C)CCn1c(CN2C(=O)CN(C3CC3)c3ccncc32)nc2nc(Cl)ccc21 [Compound P22, 4-((5-chloro-1-isopentyl-1H-imidazo[4,5-b]pyridin-2-yl)methyl)-1-cyclopropyl-1,2-dihydropyrido[3,4-b]pyrazin-3(4H)-one]
pEC50 (rgRSV224 virus): 6.92 | CC50 at 3 days (in vitro): 60.7 µM

CS(=O)(=O)CCCn1c(CN2C(=O)CN(C3CC3)c3ccncc32)nc2cc(Br)ccc21 [Compound P23, 4-((5-bromo-1-(3-(methylsulfonyl)propyl)-1H-benzo[d]imidazol-2-yl)methyl)-1-cyclopropyl-1,2-dihydropyrido[3,4-b]pyrazin-3(4H)-one]
pEC50 (rgRSV224 virus): 8.82 | CC50 at 3 days (in vitro): 71.3 µM

CS(=O)(=O)CCCn1c(Cn2c(=O)cnc3ccc(F)cc32)nc2cc(Br)ccc21 [Compound P24, 1-((5-bromo-1-(3-(methylsulfonyl)propyl)-1H-benzo[d]imidazol-2-yl)methyl)-7-fluoroquinoxalin-2(1H)-one]
pEC50 (rgRSV224 virus): 8.40 | CC50 at 3 days (in vitro): 78.5 µM

CS(=O)(=O)CCCn1c(Cn2c(=O)cnc3cc(F)ccc32)nc2cc(Br)ccc21 [Compound P25, 1-((5-bromo-1-(3-(methylsulfonyl)propyl)-1H-benzo[d]imidazol-2-yl)methyl)-6-fluoroquinoxalin-2(1H)-one]
pEC50 (rgRSV224 virus): 8.19 | CC50 at 3 days (in vitro): 64 µM

CS(=O)(=O)CCCn1c(CN2C(=O)CN(C3CC3)c3ccncc32)nc2cc(Cl)ccc21 [Compound P26, 4-((5-chloro-1-(3-(methylsulfonyl)propyl)-1H-benzo[d]imidazol-2-yl)-methyl)-1-cyclopropyl-1,2-dihydropyrido[3,4-b]pyrazin-3(4H)-one]
pEC50 (rgRSV224 virus): 7.82 | CC50 at 3 days (in vitro): > 100 µM

O=C1CN(C2CC2)c2ccncc2N1Cc1nc2cc(Cl)ccc2n1CCCC(F)(F)F [Compound P27, 4-((5-chloro-1-(4,4,4-trifluorobutyl)-1H-benzo[d]imidazol-2-yl)methyl)-1-cyclopropyl-1,2-dihydropyrido[3,4-b]pyrazin-3(4H)-one]
pEC50 (rgRSV224 virus): 7.54 | CC50 at 3 days (in vitro): > 100 µM

CS(=O)(=O)CCCn1c(Cn2c(=O)cnc3ccc(F)cc32)cc2cc(Br)ccc21 [Compound P28, 1-((5-bromo-1-(3-(methylsulfonyl)propyl)-1H-indol-2-yl)methyl)-7-fluoroquinoxalin-2(1H)-one]
pEC50 (rgRSV224 virus): 7.74

CS(=O)(=O)CCCn1c(Cn2c(=O)cnc3cc(F)ccc32)cc2cc(Br)ccc21 [Compound P29, 1-((5-bromo-1-(3-(methylsulfonyl)propyl)-1H-indol-2-yl)methyl)-6-fluoroquinoxalin-2(1H)-one]
pEC50 (rgRSV224 virus): 7.26 | CC50 at 3 days (in vitro): 9.73 µM
